Reference: US12678440B2, “Compositions and methods for treating misfolded protein ocular disorders” (CASE WESTERN RESERVE UNIVERSITY, priority 2020, dated 2026)

Tests used:
[1] = tested on: adRP-causing rhodopsin mutants (T4R, P23H, P53R, C110Y, D190N, P267L); experiment: High-content imaging of rhodopsin mutants stably expressed in U2OS cells; format: cell-based, mouse; conditions: for immunofluorescence intensities of rhodopsin mutants: six adRP mutants
Experimental: Seven U2OS stable cell lines were generated which separately express the WT and six mutant mouse rhodopsin (T4R, P23H, P53R, C110Y, D190N, P267L) fused with Venus fluorescence protein. Briefly, the U2OS cells (ATCC, Manassas, VA, USA) were transfected with the pcDNA3.1 Zeo containing the cDNA of mouse WT or T4R, P23H, P53R, C110Y, D190N, P267L rhodopsin fused with Venus and transfected cells were incubated in DMEM with 10% FBS for 48 h before addition of 400 μg/mL of Zeocin for positive clone selection. Colonies of cells survived from 1 week of Zeocin selection were collected, and expression of WT and six mutant rhodopsins were confirmed by fluorescence of Venus and immunoblotting of rhodopsin.
To assess the effect of active compounds on the clearance of P23H rhodopsin in mammalian cells, an image-based assay was performed using NIH3T3 (RHO^WT/GFP) and NIH3T3 (RHO^P23H/GFP) cells, as described previously. Briefly, cells were seeded at 5000 cells per well in 384-well plates and incubated at 37° C. in 5% CO2 for 4 hours until cells were attached to the bottom of the plate. Attached cells were treated with compounds for 24 hours. The assay medium was aspirated, and cells were fixed with 4% paraformaldehyde at 20 μL per well for 20 min at room temperature. Cell membranes were permeabilized with PBS containing 0.1% Triton X-100 (PBST) and then incubated with 50 µg/mL 1D4 anti-rhodopsin antibody at 15 μL/well for 1 hour at room temperature. After three washes with 50 μl/well of PBST, cells were incubated with 15 μL/well Cy3-conjugated goat anti-mouse IgG antibody for 1 hour at room temperature. After three washes with 50 μl/well of PBST, cells were incubated in 50 μl/well of PBS containing 2 μg/mL Hoechst 33342 to stain the nuclei. Finally, the immunostained cells were imaged by an ImageExpress High Content Imaging System (MolecularDevices). Immunofluorescence of rhodopsin was measured by MetaXpress software using the mean of total fluorescence of Cy3 channel per cell per well taken from five fields containing 600-1000 intact cells per well. After normalizing the fluorescence intensities of rhodopsin to the DMSO treated cells as 0% and cells immunostained with secondary antibody only as −100%, dose-response curves for each compound were plotted and fitted by a modified Hill function using the Origin software. The high-content imaging experiments for hit validation were performed at the CWRU drug discovery facility, and the high-content imaging analyses for the MTX co-treatment with BafA1 and MG-132 were undertaken at the University of Pittsburgh Drug Discovery Institute.

[2] = tested on: WT mouse rhodopsin fused with Renilla luciferase (Rluc); experiment: Rluc reporter counter screen in Hek293 (RHO^WT-Rluc) cells; format: cell-based; conditions: for Efficacy, Rluc assay Hek293 (RHO^WT − Rluc): 24 h, DMSO 0%, Evans Blue −100% controls; for EC50: 24 h compound treatment, dose-response, triplicate
Text: Two Hek293 stable cell lines, Hek293 (RHO^WT-Rluc) and Hek293 (RHO^P23H-Rluc) cells were generated which stably express the WT and P23H mutant mouse rhodopsin each fused with a Renilla luciferase (Rluc) for the luciferase reporter assay as previously described. Briefly, the Hek 293 cells (ATCC, Manassas, VA, USA) were transfected with the pcDNA3.1 Zeo containing the cDNA of mouse WT or P23H rhodopsin fused with a Rluc 8 (a gift from Dr. Navine Lambert at Augusta University, Augusta, GA USA) and transfected cells were incubated in Dulbecco's modified Eagle's medium (DMEM, Genesee Scientific, E1 Cajon, CA USA) with 10% fetal bovine serum (FBS, Gibco Laboratories, Gaithersburg, MD USA) for 48 h before addition of 400 μg/mL of Zeocin (InvivoGen, San Diego, CA USA) for positive clone selection. Colonies of cells survived from 1 week of Zeocin selection were collected, and expression of WT and P23H rhodopsin were confirmed by a luciferase assay and immunoblotting of rhodopsin with positive bands of monomers at about 70 kD (FIG. 8). The difference of molecular masses between WT and P23H rhodopsin proteins was due to differences in glycosylation, which was also seen in the NIH3T3 cells expressing the WT and P23H rhodopsin proteins.
The HTS was performed at three facilities, including University of Cincinnati (UC), Case Western Reserve University, and National Center for Advancing Translational Sciences (NCATS), testing a total of six compound collections. These compound collections include: 1) the UC 10K Diversity Set (10,011 compounds), 2) the Life Chemicals 50K Collection (50,560), 3) the Spectrum Collection (2,400 compounds), 4) the LOPAC collection (1,280 compounds), 5) the FDA collection (2,816 compounds), and 6) the NCATS MIPE collection (1,912 compounds). […] For the compound collections 1), 2) and 3), we firstly tested each compound using the P23H rhodopsin luciferase reporter assay at a single dose for once (9.93 to 16.13 μM) in 384-well format, and we identified 2072 compounds with activity scores lower than the cutoff at mean-2SD. Activity scores were normalized using DMSO treated cells as 0% control and the 1 mM Evans Blue treated cells as −100% control. From these hit compounds, we excluded those reported with luciferase inhibitor activities and cherry-picked the rest for hit confirmation. Each hit was tested at 10 μM in the Hek293 (RHO^P23H-Rluc) cells again by the luciferase reporter assay in triplicates, and the confirmed hits with activity scores lower than-50% were then counter screened for their effects on Rluc activity by the recombinant Rluc activity assay, and on WT rhodopsin level by the luciferase reporter assay in the Hek293 (RHO^WT-Rluc) cells at 10 μM in triplicates, respectively. […] Next, we tested the dose responses of these confirmed hits in both the Hek293 (RHO^P23H-Rluc) and the Hek293 (RHO^WT-Rluc) cells and identified compounds that selectively favored the clearance of P23H than WT rhodopsin in a dose-dependent manner (Table 4). For the compound collections 4)-6), we tested each compound directly at 7 or 11 doses using the luciferase reporter assay in the Hek293 (RHO^P23H-Rluc) cells in 1536-well format, and identified 128 compounds with efficacy smaller than-50% and EC50<20 μM.
The Rluc reporter assay has been described before. HTS was undertaken in 384-well format for the UC 10K Diversity Set, Spectrum Collection and the Life Chemicals 50K diversity set, and in 1536-well format for the FDA, LOPAC, and MIPE collections. Using the 384-well format as an example, Hek (RHO^P23H-Rluc) cells were seeded in 384-well white-wall clear-bottom plates (assay plates) at 3×10^5/mL for 40 μL/well by an 8-channel Multiflo liquid dispenser (Bioteck, Winooski, VT USA). The assay plates were centrifuged at 300×g for 30 s and cultured at 37° C. with 5% CO2 overnight. […]

Row | Structure (SMILES) | immunofluorescence intensities of rhodopsin mutants [1] | Efficacy, Rluc assay Hek293 (RHO^WT − Rluc) [2] | EC50 [2] | rhodopsin immunofluorescence in cells expressing the P23H, C110Y, D190N and P267L mutants ([1]; seven doses)
1 | CC(=O)OC(CC(=O)[O-])C[N+](C)(C)C (stereo not drawn) [CL-001] | reduced | −44.3% | 1000 nM | 
2 | CC(=O)OC(CC(=O)O)C[N+](C)(C)C (stereo not drawn) [CL-002] | reduced | −62.0% | 3400 nM | 
3 | O=C(O)C1=CC=CC(O)C1O (stereo not drawn) [CL-003] |  | −37.7% | 1500 nM | 
4 | CC(O)CN (stereo not drawn) [CL-004] |  | −45.5% | 920 nM | 
5 | NCC(=O)COP(=O)(O)O [CL-005] | reduced | −57.9% | 4200 nM | 
6 | O=C(NC1CCNCC1)c1n[nH]cc1NC(=O)c1c(Cl)cccc1Cl [CL-006] |  | −42.9% | 1520 nM | 
7 | CCn1cnc2c(N)ncnc21 [CL-007] | reduced | −51.7% | 11000 nM | 
8 | CCC(C)(O)C(O)C(=O)O (stereo not drawn) [CL-008] |  | −52.7% | 590 nM | 
9 | CN(Cc1cnc2nc(N)nc(N)c2n1)c1ccc(C(=O)N[C@@H](CCC(=O)O)C(=O)O)cc1 [CL-009, N-[4-[[(2,4-diamino-6-pteridinyl)methyl]methylamino]benzoyl]-L-glutamic acid] |  |  |  | dose-dependent reductions
